Results reported in patent US11046696B2, “Fused pyrimidine compound or salt thereof” (TAIHO PHARMACEUTICAL CO., LTD., priority 2016, dated 2021).

Assay: Evaluation of stability in liver microsome
Conditions: mouse liver microsome, 1 μM, 37° C. for 30 minutes

Row | SMILES | Remaining (%)
1 | COCc1ccc(NC(=O)c2c(OCC3CCOC3)n(C3(C)CC3)c3ncnc(N)c23)cc1 (stereo not shown) [Example 101, 4-amino-N-(4-(methoxymethyl)phenyl)-7-(1-methylcyclopropyl)-6-((tetrahydrofuran-3-yl)methoxy)-7H-pyrrolo[2,3-d]pyrimidine-5-carboxamide] | 68%
2 | COCc1ccc(NC(=O)c2c(C#CCN3CCN(C)CC3)n(C3(C)CC3)c3ncnc(N)c23)cc1 [Example 132, 4-amino-N-(4-(methoxymethyl)phenyl)-7-(1-methylcyclopropyl)-6-(3-(4-methylpiperazin-1-yl)prop-1-yn-1-yl)-7H-pyrrolo[2,3-d]pyrimidine-5-carboxamide] | 77%
3 | COCc1ccc(NC(=O)c2c(-c3ccc(F)nc3)n(C3(C)CC3)c3ncnc(N)c23)cc1 [Example 190, 4-amino-6-(6-fluoropyridin-3-yl)-N-(4-(methoxymethyl)phenyl)-7-(1-methylcyclopropyl)-7H-pyrrolo[2,3-d]pyrimidine-5-carboxamide] | 58%
4 | COCc1ccc(NC(=O)c2cn(C(C)(C)C)c3ncnc(N)c23)cc1 [Example 2, 4-amino-7-(tert-butyl)-N-(4-(methoxymethyl)phenyl)-7H-pyrrolo[2,3-d]pyrimidine-5-carboxamide] | 64%
5 | COCc1ccc(NC(=O)c2c(C#CCC3CCCCC3)n(C3(C)CC3)c3ncnc(N)c23)cc1 [Example 199, 4-amino-6-(3-cyclohexylprop-1-yn-1-yl)-N-(4-(methoxymethyl)phenyl)-7-(1-methylcyclopropyl)-7H-pyrrolo[2,3-d]pyrimidine-5-carboxamide] | 80%
6 | COCc1ccc(NC(=O)c2c(F)n(C3(C)CC3)c3ncnc(N)c23)cc1 [Example 69, 4-amino-6-fluoro-N-(4-(methoxymethyl)phenyl)-7-(1-methylcyclopropyl)-7H-pyrrolo[2,3-d]pyrimidine-5-carboxamide] | 69%
7 | COCc1ccc(NC(=O)c2c(C#Cc3cnn(C)c3)n(C3(C)CC3)c3ncnc(N)c23)cc1 [Example 90, 4-amino-N-[4-(methoxymethyl)phenyl]-6-((1-methyl-1H-pyrazol-4-yl)ethynyl)-7-(1-methylcyclopropyl)-7H-pyrrolo[2,3-d]pyrimidine-5-carboxamide] | 67%
8 | CCOc1c(C(=O)Nc2ccc(-c3ccco3)cc2)c2c(N)ncnc2n1C1(C)CC1 [Example 116, 4-amino-6-ethoxy-N-(4-(furan-2-yl)phenyl)-7-(1-methylcyclopropyl)-7H-pyrrolo[2,3-d]pyrimidine-5-carboxamide] | 55%
9 | COCc1ccc(NC(=O)c2c(OCC3CCCC3)n(C3(C)CC3)c3ncnc(N)c23)cc1 [Example 140, 4-amino-6-(cyclopentylmethoxy)-N-(4-(methoxymethyl)phenyl)-7-(1-methylcyclopropyl)-7H-pyrrolo[2,3-d] pyrimidine-5-carboxamide] | 52%
10 | CCn1cc(C#Cc2c(C(=O)Nc3ccc(COC)cc3)c3c(N)ncnc3n2C2(C)CC2)cn1 [Example 118, 4-amino-6-((1-ethyl-1H-pyrazol-4-yl)ethynyl)-N-(4-(methoxymethyl)phenyl)-7-(1-methylcyclopropyl)-7H-pyrrolo[2,3-d]pyrimidine-5-carboxamide] | 73%
11 | COCc1ccc(NC(=O)c2c(C#Cc3ccn[nH]3)n(C3(C)CC3)c3ncnc(N)c23)cc1 [Example 129, 6-((1H-pyrazol-5-yl)ethynyl)-4-amino-N-(4-(methoxymethyl)phenyl)-7-(1-methylcyclopropyl)-7H-pyrrolo[2,3-d]pyrimidine-5-carboxamide] | 54%
12 | COCc1ccc(NC(=O)c2cn(C(C)(C)C)c3ncnc(N)c23)c(OC)c1 [Example 33, 4-amino-7-(tert-butyl)-N-(2-methoxy-4-(methoxymethyl)phenyl)-7H-pyrrolo[2,3-d]pyrimidine-5-carboxamide] | 57%
13 | COCc1ccc(NC(=O)c2c(C#CC(C)(C)O)n(C3(C)CC3)c3ncnc(N)c23)cc1 [Example 174, 4-amino-6-(3-hydroxy-3-methylbut-1-yn-1-yl)-N-(4-(methoxymethyl)phenyl)-7-(1-methylcyclopropyl)-7H-pyrrolo[2,3-d]pyrimidine-5-carboxamide] | 72%
14 | Nc1ncnc2c1c(C(=O)Nc1ccc(Oc3ccccc3)cc1)cn2C1CCCC1 [Compound 2 of Comparative Examples, 4-amino-7-cyclopentyl-N-(4-phenoxyphenyl)-7H-pyrrolo[2,3-d]pyrimidine-5-carboxamide, reference compound] | 0%
15 | COCc1ccc(NC(=O)c2c(OCC3CCCO3)n(C3(C)CC3)c3ncnc(N)c23)cc1 (stereo not shown) [Example 135, 4-amino-N-(4-(methoxymethyl)phenyl)-7-(1-methylcyclopropyl)-6-((tetrahydrofuran-2-yl)methoxy)-7H-pyrrolo[2,3-d]pyrimidine-5-carboxamide] | 67%
16 | COCc1ccc(NC(=O)c2c(C#CCC3(O)COC3)n(C3(C)CC3)c3ncnc(N)c23)cc1 [Example 125, 4-amino-6-(3-(3-hydroxyoxetan-3-yl)prop-1-yn-1-yl)-N-(4-(methoxymethyl)phenyl)-7-(1-methylcyclopropyl)-7H-pyrrolo[2,3-d]pyrimidine-5-carboxamide] | 74%
17 | COCc1ccc(NC(=O)c2c(C#Cc3cncn3C)n(C3(C)CC3)c3ncnc(N)c23)cc1 [Example 93, 4-amino-N-(4-(methoxymethyl)phenyl)-6-((1-methyl-1H-imidazol-5-yl)ethynyl)-7-(1-methylcyclopropyl)-7H-pyrrolo[2,3-d]pyrimidine-5-carboxamide] | 53%
18 | COCc1ccc(NC(=O)c2c(OCC3CCCCO3)n(C3(C)CC3)c3ncnc(N)c23)cc1 (stereo not shown) [Example 102, 4-amino-N-(4-(methoxymethyl)phenyl)-7-(1-methylcyclopropyl)-6-((tetrahydro-2H-pyran-2-yl)methoxy)-7H-pyrrolo[2,3-d]pyrimidine-5-carboxamide] | 60%
19 | COCc1ccc(NC(=O)c2c(C#Cc3ccn(C)n3)n(C3(C)CC3)c3ncnc(N)c23)cc1 [Example 92, 4-amino-N-(4-(methoxymethyl)phenyl)-6-((1-methyl-1H-pyrazol-3-yl)ethynyl)-7-(1-methylcyclopropyl)-7H-pyrrolo[2,3-d]pyrimidine-5-carboxamide] | 67%
20 | COCc1ccc(NC(=O)c2c(-c3ccc(N4CCN(C)CC4)cc3)n(C3(C)CC3)c3ncnc(N)c23)cc1 [Example 171, 4-amino-N-(4-(methoxymethyl)phenyl)-7-(1-methylcyclopropyl)-6-(4-(4-methylpiperazin-1-yl)phenyl)-7H-pyrrolo[2,3-d]pyrimidine-5-carboxamide] | 77%
21 | COCc1ccc(NC(=O)c2c(C#CCN3CCCC3)n(C3(C)CC3)c3ncnc(N)c23)cc1 [Example 88, 4-amino-N-[4-(methoxymethyl)phenyl]-7-(1-methylcyclopropyl)-6-(3-(pyrrolidin-1-yl)prop-1-yn-1-yl)-7H-pyrrolo[2,3-d]pyrimidine-5-carboxamide] | 59%
22 | COCc1ccc(NC(=O)c2c(C#Cc3cnn(C)c3C)n(C3(C)CC3)c3ncnc(N)c23)cc1 [Example 182, 4-amino-6-((1,5-dimethyl-1H-pyrazol-4-yl)ethynyl)-N-(4-(methoxymethyl)phenyl)-7-(1-methylcyclopropyl)-7H-pyrrolo[2,3-d]pyrimidine-5-carboxamide] | 61%
